Measurements: article PMC11329753, “Human mitochondrial carriers of the SLC25 family function as monomers exchanging substrates with a ping-pong kinetic mechanism” (The EMBO Journal, 2024)

Legend:
[1] = molecular target: T1, human aspartate/glutamate carrier 2 (AGC2, SLC25A13) (Homo sapiens, UniProt Q9UJS0); assay: […]-aspartate uptake into proteoliposomes, homo-exchange, Michaelis-Menten fit; type: biochemical; settings: labelled compound; internal aspartate 0.10-1.00 mM, external 1.5-25 μM; 20 mM HEPES pH 7.4, 50 mM NaCl, 1 mM CaCl2
T1 construct: N-terminal His8 tag with TEV site, tag removed by TEV cleavage; codon-optimized, expressed in Saccharomyces cerevisiae W303.1B mitochondria; purified in LMNG/cardiolipin; 74 kDa protomer, homodimer via N-terminal domains
T1 sequence (Q9UJS0 2-675): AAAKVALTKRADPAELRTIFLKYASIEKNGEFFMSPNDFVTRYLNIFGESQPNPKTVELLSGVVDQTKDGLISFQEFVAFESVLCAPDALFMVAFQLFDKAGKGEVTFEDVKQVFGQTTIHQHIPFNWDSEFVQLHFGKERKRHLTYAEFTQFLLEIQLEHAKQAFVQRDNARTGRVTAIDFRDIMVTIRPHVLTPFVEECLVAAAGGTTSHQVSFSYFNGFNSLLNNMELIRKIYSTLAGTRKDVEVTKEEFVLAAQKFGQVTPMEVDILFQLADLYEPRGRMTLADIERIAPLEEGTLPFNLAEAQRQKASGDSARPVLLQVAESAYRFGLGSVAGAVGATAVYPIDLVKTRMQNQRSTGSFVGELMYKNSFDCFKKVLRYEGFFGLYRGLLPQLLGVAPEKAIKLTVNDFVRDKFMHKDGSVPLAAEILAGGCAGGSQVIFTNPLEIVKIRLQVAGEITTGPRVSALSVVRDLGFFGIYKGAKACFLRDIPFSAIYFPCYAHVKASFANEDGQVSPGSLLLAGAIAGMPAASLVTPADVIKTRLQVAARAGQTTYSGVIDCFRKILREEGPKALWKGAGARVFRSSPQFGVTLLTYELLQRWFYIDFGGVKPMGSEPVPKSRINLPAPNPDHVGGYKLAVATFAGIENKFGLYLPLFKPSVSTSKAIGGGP

[2] = molecular target: T1, human aspartate/glutamate carrier 2 (AGC2, SLC25A13); assay: nanoDSF thermal shift; type: binding; settings: 10 mM aspartate; 20 mM HEPES pH 7.0, 50 mM NaCl, cardiolipin/LMNG; apo Tm 55.4 °C
[3] = molecular target: human citrate carrier (CIC, SLC25A1) (Homo sapiens, UniProt P53007); settings: labelled compound; internal citrate 0.10-1.00 mM, external 1.0-25 μM; 20 mM HEPES pH 7.0, 50 mM NaCl, 5 mM MgCl2
Sequence of human citrate carrier (CIC, SLC25A1) (P53007 13-311): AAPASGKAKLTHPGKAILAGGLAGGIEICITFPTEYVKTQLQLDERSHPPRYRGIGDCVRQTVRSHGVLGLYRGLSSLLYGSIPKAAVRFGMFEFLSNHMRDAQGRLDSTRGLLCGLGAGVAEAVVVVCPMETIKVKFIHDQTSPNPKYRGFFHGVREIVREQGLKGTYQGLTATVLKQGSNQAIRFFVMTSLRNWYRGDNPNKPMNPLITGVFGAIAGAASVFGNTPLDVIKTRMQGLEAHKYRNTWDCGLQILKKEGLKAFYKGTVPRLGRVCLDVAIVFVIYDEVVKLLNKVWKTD

[4] = molecular target: T2, human oxoglutarate carrier (OGC, SLC25A11) (Homo sapiens, UniProt Q02978); assay: nanoDSF thermal shift; type: binding; settings: 10 mM malate; 20 mM HEPES pH 7.0, 50 mM NaCl, cardiolipin/LMNG; apo Tm 51.0 °C
T2 construct: residues 2-13 deleted; N-terminal His8 tag with factor Xa site, tag removed by on-column Xa cleavage; codon-optimized, expressed in Saccharomyces cerevisiae W303.1B mitochondria; purified in LMNG/cardiolipin; 33,477 Da; monomer
T2 sequence (Q02978 14-314): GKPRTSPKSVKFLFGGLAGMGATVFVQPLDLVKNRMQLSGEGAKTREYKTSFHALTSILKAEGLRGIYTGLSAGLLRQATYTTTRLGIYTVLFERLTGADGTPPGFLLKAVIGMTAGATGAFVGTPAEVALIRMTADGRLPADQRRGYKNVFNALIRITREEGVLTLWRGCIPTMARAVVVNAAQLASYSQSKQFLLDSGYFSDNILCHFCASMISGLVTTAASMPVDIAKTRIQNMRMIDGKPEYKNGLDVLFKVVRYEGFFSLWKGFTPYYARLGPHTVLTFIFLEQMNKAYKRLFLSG

[5] = molecular target: T3, human dicarboxylate carrier (DIC, SLC25A10) (Homo sapiens, UniProt Q9UBX3, INS1GKP); assay: nanoDSF thermal shift; type: binding; settings: 10 mM malate; 20 mM HEPES pH 7.0, 50 mM NaCl, cardiolipin/LMNG; apo Tm 54.1 °C
T3 construct: GKP added at positions 2-4; N-terminal His8 tag with factor Xa site, tag removed by on-column Xa cleavage; codon-optimized, expressed in Saccharomyces cerevisiae BJ2168 mitochondria; purified in LMNG/cardiolipin; 31,923 Da; monomer
T3 sequence (Q9UBX3 with tags, fused parts or gaps INS1GKP): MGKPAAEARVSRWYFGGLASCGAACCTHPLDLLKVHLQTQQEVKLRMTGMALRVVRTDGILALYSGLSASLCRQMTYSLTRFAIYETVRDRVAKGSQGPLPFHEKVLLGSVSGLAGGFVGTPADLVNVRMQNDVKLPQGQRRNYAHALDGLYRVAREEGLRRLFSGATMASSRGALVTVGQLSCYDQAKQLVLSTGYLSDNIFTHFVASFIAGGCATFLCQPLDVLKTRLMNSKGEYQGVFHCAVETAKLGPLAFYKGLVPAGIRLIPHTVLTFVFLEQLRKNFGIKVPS

[6] = molecular target: T2, human oxoglutarate carrier (OGC, SLC25A11); assay: […]-malate uptake into proteoliposomes, homo-exchange, Michaelis-Menten fit; type: biochemical; settings: labelled compound; internal malate 0.10-1.00 mM, external 0.5-20 μM; 20 mM HEPES pH 7.0, 50 mM NaCl, 5 mM MgCl2
[7] = molecular target: the molecule itself; assay: SEC; 150 μL of purified carrier on Superdex 200 Increase 10/300 in buffer B (20 mM HEPES pH 7.0, 50 mM NaCl, 0.1 mg/mL tetraoleoyl cardiolipin/0.1% (w/v) lauryl maltose neopentyl glycol); sized against ferritin, aldolase, conalbumin and ovalbumin; total weight corrected for bound lipid/detergent (≈135 kDa)

Molecule: N[C@@H](CC(=O)O)C(=O)O [aspartate]
- apparent Km [1]: chemical gradients for (C) OGC, (F) CIC, (I) DIC, and (L) AGC2
- thermal shift [2]: 1.6 °C

Molecule: O=C(O)CC(O)(CC(=O)O)C(=O)O [citrate]
- apparent Km [3]: Km plotted against Vmax for the various chemical gradients for (C) OGC, (F) CIC

Molecule: O=C(O)C[C@H](O)C(=O)O [malate]
- thermal shift [4]: 5.6 °C
- thermal shift [5]: 2.5 °C
- apparent Km [6]: Km plotted against Vmax for the various chemical gradients for (C) OGC

B1: human mitochondrial aspartate/glutamate carrier 2 (natural protein, UniProt Q9UJS0 1-675, looked up)
chain: MAAAKVALTKRADPAELRTIFLKYASIEKNGEFFMSPNDFVTRYLNIFGESQPNPKTVELLSGVVDQTKDGLISFQEFVAFESVLCAPDALFMVAFQLFDKAGKGEVTFEDVKQVFGQTTIHQHIPFNWDSEFVQLHFGKERKRHLTYAEFTQFLLEIQLEHAKQAFVQRDNARTGRVTAIDFRDIMVTIRPHVLTPFVEECLVAAAGGTTSHQVSFSYFNGFNSLLNNMELIRKIYSTLAGTRKDVEVTKEEFVLAAQKFGQVTPMEVDILFQLADLYEPRGRMTLADIERIAPLEEGTLPFNLAEAQRQKASGDSARPVLLQVAESAYRFGLGSVAGAVGATAVYPIDLVKTRMQNQRSTGSFVGELMYKNSFDCFKKVLRYEGFFGLYRGLLPQLLGVAPEKAIKLTVNDFVRDKFMHKDGSVPLAAEILAGGCAGGSQVIFTNPLEIVKIRLQVAGEITTGPRVSALSVVRDLGFFGIYKGAKACFLRDIPFSAIYFPCYAHVKASFANEDGQVSPGSLLLAGAIAGMPAASLVTPADVIKTRLQVAARAGQTTYSGVIDCFRKILREEGPKALWKGAGARVFRSSPQFGVTLLTYELLQRWFYIDFGGVKPMGSEPVPKSRINLPAPNPDHVGGYKLAVATFAGIENKFGLYLPLFKPSVSTSKAIGGGP
notes: human aspartate/glutamate carrier 2 (AGC2, SLC25A13), UniProt Q9UJS0; TEV site between the His8 tag and the protein; protomers printed as 74 kDa each; also called AGC2; SLC25A13; not shown: His8, N-terminal, cleaved
- stoichiometry N [7]: 2
